29 molecules from ChEMBL document CHEMBL4483862, “Open-source discovery of chemical leads for next-generation chemoprotective antimalarials” (2018) can be followed below.

Structures are written as SMILES.

The experiment has as its system Plasmodium berghei. Briefly: Luciferase/luciferin-expressing antifolate-resistant parasites were used to infect a culture of HepG2 cells that were pre-incubated with compounds. Infected hepatocytes emit light due to the luciferase reaction. Assay results are presented as the percent inhibition of light emission compared to control. […]. As to conditions: sporozoite; for IC90: read-out: LUCIFERASE INFECTION ASSAY - IC90. It counts as functional.

As a reminder, the IC50 is the concentration that inhibits the measured activity by half. As a reminder, the IC90 is the point of the concentration-response curve where the effect stands at 90%. In the case of `Cc1c(C)c(C)c2[nH]c(S)nc2c1C`, the IC90 is over 16 µM. For the setting “HEPG2TOX_HILL_SLOPE 6.45, HEPG2TOX_R_SQUARED 0.505, PBLUC_HILL_SLOPE 19.5, PBLUC_R_SQUARED 0.258, read-out: LUCIFERASE INFECTION ASSAY - IC50”, the IC50 was found to be 15.4 µM.

With `COc1ccc(NC(=O)NCC(=O)c2cc(C)n(-c3ccc(C)c(C)c3)c2C)cc1`, the IC90 was found to be 3.99 µM. In addition, the IC50 (HEPG2TOX_HILL_SLOPE 6.34, HEPG2TOX_R_SQUARED 0.826, PBLUC_HILL_SLOPE 22.8, PBLUC_R_SQUARED 0.569, read-out: LUCIFERASE INFECTION ASSAY - IC50) came to 3.63 µM.

Consider `O=S(=O)(c1ccc2oc(Nc3ccc(Cl)c(C(F)(F)F)c3)nc2c1)N1CCOCC1`, for which the IC90 is over 10 µM. Besides, the IC50 (HEPG2TOX_HILL_SLOPE 6.56, HEPG2TOX_R_SQUARED 0.393, PBLUC_HILL_SLOPE 2.74, PBLUC_R_SQUARED 0.701, read-out: LUCIFERASE INFECTION ASSAY - IC50) was 4.51 µM.

On to `C=CCSc1nnc(-c2ccc(C(C)(C)C)cc2)n1-c1ccc(C(C)C)cc1`, for which the 90% effect concentration (IC90) is over 8.43 µM. In addition, the half-maximal inhibitory concentration (IC50) (HEPG2TOX_HILL_SLOPE 6.39, HEPG2TOX_R_SQUARED 0.425, PBLUC_HILL_SLOPE 3, PBLUC_R_SQUARED 0.616, read-out: LUCIFERASE INFECTION ASSAY - IC50) was over 8.43 µM.

Turning to `CCOc1ccccc1N(C(=O)C1CC=CCC1)c1nc2ccccc2s1` (stereo not drawn), the IC90 is over 10 µM. In addition, for the setting “HEPG2TOX_HILL_SLOPE 6.4, HEPG2TOX_R_SQUARED 0.335, PBLUC_HILL_SLOPE 2.71, PBLUC_R_SQUARED 0.0983, read-out: LUCIFERASE INFECTION ASSAY - IC50”, the IC50 is 7.73 µM.

For `O=C(Nc1ccnn1Cc1ccc(Cl)cc1Cl)c1cccc(NC(=O)c2cccs2)c1`, the IC90 was over 10 µM. For the same molecule, the IC50 (HEPG2TOX_HILL_SLOPE 6.41, HEPG2TOX_R_SQUARED 0.384, PBLUC_HILL_SLOPE 10.4, PBLUC_R_SQUARED 0.292, read-out: LUCIFERASE INFECTION ASSAY - IC50) was 8.61 µM.

Turning to `Cc1cc(SCC(=O)NC(C)C2CC3CCC2C3)n2c(nc3ccccc32)c1C#N` (stereo not drawn), the IC90 was 3.54 µM. Where the note is “HEPG2TOX_HILL_SLOPE 6.37, HEPG2TOX_R_SQUARED 0.94, PBLUC_HILL_SLOPE 33.9, PBLUC_R_SQUARED 0.41, read-out: LUCIFERASE INFECTION ASSAY - IC50”, the IC50 amounted to 3.32 µM.

As to `COc1ccc(N2CCN(CCCNc3ncnc4cc(Cl)ccc34)CC2)cc1`, the IC90 is 3.54 µM. Besides, where the note is “HEPG2TOX_HILL_SLOPE 6.44, HEPG2TOX_R_SQUARED 0.109, PBLUC_HILL_SLOPE 114, 20.9, PBLUC_R_SQUARED 0.138, 0.588, read-out: LUCIFERASE INFECTION ASSAY - IC50”, the IC50 is 3.33 µM.

Regarding `CCc1cccc2c(/C=C(\C#N)c3nc4ccccc4[nH]3)c[nH]c12`, the IC90 was over 10 µM. The IC50 (HEPG2TOX_HILL_SLOPE 6.57, HEPG2TOX_R_SQUARED 0.521, read-out: LUCIFERASE INFECTION ASSAY - IC50) was over 10 µM.

In the case of `COc1ccc(Cl)cc1C(=O)NCCC(c1ccccc1)c1ccccc1`, the IC90 was over 8.69 µM. Further, the concentration for half-maximal inhibition (IC50) (HEPG2TOX_HILL_SLOPE 6.56, HEPG2TOX_R_SQUARED 0.368, PBLUC_HILL_SLOPE 3.72, PBLUC_R_SQUARED 0.314, read-out: LUCIFERASE INFECTION ASSAY - IC50) amounted to 5.39 µM.

Turning to `Cc1ccc(S(=O)(=O)N2CCN(CC(=O)N3N=C4/C(=C/c5cccs5)CCCC4C3c3cccs3)CC2)cc1` (stereo not drawn), the IC90 amounted to 4.41 µM. Moreover, for the setting “HEPG2TOX_HILL_SLOPE 6.4, HEPG2TOX_R_SQUARED 0.688, PBLUC_HILL_SLOPE 11.3, PBLUC_R_SQUARED 0.553, read-out: LUCIFERASE INFECTION ASSAY - IC50”, the IC50 was found to be 3.64 µM.

For `O=C1N(Cc2ccccn2)C(=O)C2(CCN(Cc3cc4ccccc4o3)CC2)N1CCc1ccccc1`, the IC90 is over 6.67 µM. Besides, the half-inhibitory concentration (IC50) (HEPG2TOX_HILL_SLOPE 6.35, HEPG2TOX_R_SQUARED 0.629, PBLUC_HILL_SLOPE 2.7, PBLUC_R_SQUARED 0.846, read-out: LUCIFERASE INFECTION ASSAY - IC50) was determined as 4.34 µM.

On to `CNc1ccccc1C(C)(C)c1cc(NC(=O)C2CCCC2)sc1C(=O)c1ccc(Cl)cc1`, for which the IC90 is over 10 µM. Further, the IC50 (HEPG2TOX_HILL_SLOPE 6.51, HEPG2TOX_R_SQUARED 0.0707, read-out: LUCIFERASE INFECTION ASSAY - IC50) was over 10 µM.

`CC1C/C(=N\Nc2cc(Cl)cc(Cl)c2)c2cc(Cl)ccc2S1` (stereo not drawn): the IC90 was over 8.88 µM. The IC50 (HEPG2TOX_HILL_SLOPE 6.52, HEPG2TOX_R_SQUARED 0.251, PBLUC_HILL_SLOPE 17, PBLUC_R_SQUARED 0.35, read-out: LUCIFERASE INFECTION ASSAY - IC50) worked out at 8.47 µM.

As to `O=C(NNC(=S)NC(=O)c1cn(-c2ccccc2)nc1-c1ccc(Br)cc1)c1ccncc1`, the IC90 worked out at 3.48 µM. For the same molecule, under “HEPG2TOX_HILL_SLOPE 6.43, HEPG2TOX_R_SQUARED 0.426, PBLUC_HILL_SLOPE 13.5, PBLUC_R_SQUARED 0.624, read-out: LUCIFERASE INFECTION ASSAY - IC50”, the IC50 worked out at 2.96 µM.

For `CCOC(=O)c1ccc(N2C(=O)c3ccccc3C(C=NNC(=O)c3ccoc3C)C2=O)c(Cl)c1` (stereo not drawn), the IC90 is over 10 µM. Moreover, the IC50 (HEPG2TOX_HILL_SLOPE 6.47, HEPG2TOX_R_SQUARED 0.622, PBLUC_HILL_SLOPE 28.4, PBLUC_R_SQUARED 0.423, read-out: LUCIFERASE INFECTION ASSAY - IC50) worked out at 9.76 µM.

For `CNc1nc2cnc(Nc3cccc(C)c3)cc2n1Cc1ccc(OC)c(OC)c1`, the IC90 was over 10 µM. Where the note is “HEPG2TOX_HILL_SLOPE 6.56, HEPG2TOX_R_SQUARED 0.678, read-out: LUCIFERASE INFECTION ASSAY - IC50”, the IC50 is over 10 µM.

Regarding `O=C(/C=C/c1ccccc1)c1ccc(-n2nncc2-c2ccccc2)cc1`, the concentration for an effect of 90% (IC90) was over 10 µM. Besides, the IC50 (HEPG2TOX_HILL_SLOPE 6.47, HEPG2TOX_R_SQUARED 0.294, read-out: LUCIFERASE INFECTION ASSAY - IC50) is over 10 µM.

For `CC(Oc1ccc(C(=O)c2ccc(F)cc2)cc1)C(=O)NC1(C#N)CCCCC1` (stereo not drawn), the 90% effect concentration (IC90) is over 10 µM. Moreover, for the setting “HEPG2TOX_HILL_SLOPE 6.49, HEPG2TOX_R_SQUARED 0.548, PBLUC_HILL_SLOPE 2.92, PBLUC_R_SQUARED 0.383, read-out: LUCIFERASE INFECTION ASSAY - IC50”, the IC50 was 7.61 µM.

Consider `Cc1ccc(-c2nc(NC(=O)c3ccn(C)c(=O)c3)sc2-c2ccc(C)cc2)cc1`, for which the IC90 was found to be 5.86 µM. The IC50 (HEPG2TOX_HILL_SLOPE 6.56, HEPG2TOX_R_SQUARED 0.678, PBLUC_HILL_SLOPE 73.6, 3.22, PBLUC_R_SQUARED 0.772, 0.348, read-out: LUCIFERASE INFECTION ASSAY - IC50) stood at 3.76 µM.

Consider `CC1=CC(=O)N(c2ccc(F)c(Cl)c2)C1=O`, for which the IC90 is over 13.8 µM. Moreover, the IC50 (HEPG2TOX_HILL_SLOPE 6.55, HEPG2TOX_R_SQUARED 0.196, PBLUC_HILL_SLOPE 2.8, PBLUC_R_SQUARED 0.561, read-out: LUCIFERASE INFECTION ASSAY - IC50) was 8.94 µM.

With `NC(=O)c1c(NC(=O)NCc2cccnc2)sc2c1CCC2`, the IC90 was over 10.4 µM. Moreover, for the setting “HEPG2TOX_HILL_SLOPE 6.58, HEPG2TOX_R_SQUARED 0.0674, read-out: LUCIFERASE INFECTION ASSAY - IC50”, the IC50 was over 10.4 µM.

As for `Oc1ccccc1/C=N/Nc1cccc(C(F)(F)F)c1`, the IC90 was over 11.8 µM. Where the note is “HEPG2TOX_HILL_SLOPE 6.57, HEPG2TOX_R_SQUARED 0.439, PBLUC_HILL_SLOPE 2.9, PBLUC_R_SQUARED 0.288, read-out: LUCIFERASE INFECTION ASSAY - IC50”, the IC50 is over 11.8 µM.

As to `CC(C)(C)c1csc(Cc2ccc(-c3csnn3)cc2)n1`, the IC90 was found to be 8.68 µM. Further, the IC50 (HEPG2TOX_HILL_SLOPE 6.43, HEPG2TOX_R_SQUARED 0.485, PBLUC_HILL_SLOPE 2.92, PBLUC_R_SQUARED 0.738, read-out: LUCIFERASE INFECTION ASSAY - IC50) is 4.09 µM.

For `NS(=O)(=O)c1ccc(CCNc2nn3c(-c4cccs4)cnc3s2)cc1`, the IC90 is over 8.14 µM. Moreover, the concentration for half-maximal inhibition (IC50) (HEPG2TOX_HILL_SLOPE 6.48, HEPG2TOX_R_SQUARED 0.0577, read-out: LUCIFERASE INFECTION ASSAY - IC50) was over 8.14 µM.

`CNC(=O)c1ccc(CN(Cc2ccco2)c2nc(C(F)(F)F)nc3ccccc23)cc1`: the IC90 came to 3.56 µM. Moreover, the IC50 (HEPG2TOX_HILL_SLOPE 6.45, HEPG2TOX_R_SQUARED 0.103, PBLUC_HILL_SLOPE 3.77, PBLUC_R_SQUARED 0.847, read-out: LUCIFERASE INFECTION ASSAY - IC50) stood at 1.99 µM.

Turning to `CCCCNC(=O)c1c(NC(=O)c2ccccc2C(F)(F)F)nc2ccccn12`, the IC90 stood at 8.11 µM. For the same molecule, the IC50 (HEPG2TOX_HILL_SLOPE 6.6, HEPG2TOX_R_SQUARED 0.306, PBLUC_HILL_SLOPE 21.5, PBLUC_R_SQUARED 0.838, read-out: LUCIFERASE INFECTION ASSAY - IC50) was found to be 7.33 µM.

Regarding `COCc1cccc(-c2cc(-c3cc4ccccc4s3)cnc2N)c1`, the IC90 is over 9.53 µM. The IC50 (HEPG2TOX_HILL_SLOPE 6.43, HEPG2TOX_R_SQUARED 0.192, PBLUC_HILL_SLOPE 1.27, PBLUC_R_SQUARED 0.564, read-out: LUCIFERASE INFECTION ASSAY - IC50) was determined as 5.74 µM.

With `Cc1cccc(-c2cc(C(=O)Nc3cccc(Cl)c3)[nH]n2)c1O`, the IC90 stood at 9.89 µM. In addition, under “HEPG2TOX_HILL_SLOPE 6.46, HEPG2TOX_R_SQUARED 0.463, PBLUC_HILL_SLOPE 41.9, PBLUC_R_SQUARED 0.193, read-out: LUCIFERASE INFECTION ASSAY - IC50”, the IC50 is 9.38 µM.
